Target: ROCK2 (Homo sapiens, UniProt O75116)
Experiment: ROCK2 assay (Caliper LABCHIP peptide phosphorylation, kinase inhibition)
Assay type: biochemical
Details: 5 μM ATP, 1.5 μM peptide substrate
Procedure: The effectiveness of compounds of the present invention as ROCK inhibitors can be determined in a 30 μL assay containing 20 mM HEPES, pH 7.5, 20 mM MgCl2, 0.015% Brij-35, 4 mM DTT, 5 μM ATP and 1.5 μM peptide substrate (FITC-AHA-AKRRRLSSLRA-OH) (SEQ ID NO. 1). Compounds were dissolved in DMSO so that the final concentration of DMSO was <2%, and the reaction was initiated with Rho kinase variants. After incubation, the reaction was terminated by the addition of EDTA and the phosphorylated and non-phosphorylated peptides separated using a LABCHIP® 3000 Reader (Caliper Life Sciences). […] Compounds were tested in dose-response format, and the inhibition of kinase activity was calculated at each concentration of compound. The inhibition data were fit using a curve-fitting program to determine the IC50; i.e., the concentration of compound required to inhibit 50% of kinase activity.
Representative Examples were tested in the ROCK2 assay described above and found having ROCK2 inhibitory activity. The ranges of the ROCK2 IC50 values are as follows: ROCK2 IC50: ++++ (<10 nM) +++ (10-100 nM) ++ (100-500 nM) + (500-2000 nM)

ROCK2, sequence (O75116 whole entry, species assumed): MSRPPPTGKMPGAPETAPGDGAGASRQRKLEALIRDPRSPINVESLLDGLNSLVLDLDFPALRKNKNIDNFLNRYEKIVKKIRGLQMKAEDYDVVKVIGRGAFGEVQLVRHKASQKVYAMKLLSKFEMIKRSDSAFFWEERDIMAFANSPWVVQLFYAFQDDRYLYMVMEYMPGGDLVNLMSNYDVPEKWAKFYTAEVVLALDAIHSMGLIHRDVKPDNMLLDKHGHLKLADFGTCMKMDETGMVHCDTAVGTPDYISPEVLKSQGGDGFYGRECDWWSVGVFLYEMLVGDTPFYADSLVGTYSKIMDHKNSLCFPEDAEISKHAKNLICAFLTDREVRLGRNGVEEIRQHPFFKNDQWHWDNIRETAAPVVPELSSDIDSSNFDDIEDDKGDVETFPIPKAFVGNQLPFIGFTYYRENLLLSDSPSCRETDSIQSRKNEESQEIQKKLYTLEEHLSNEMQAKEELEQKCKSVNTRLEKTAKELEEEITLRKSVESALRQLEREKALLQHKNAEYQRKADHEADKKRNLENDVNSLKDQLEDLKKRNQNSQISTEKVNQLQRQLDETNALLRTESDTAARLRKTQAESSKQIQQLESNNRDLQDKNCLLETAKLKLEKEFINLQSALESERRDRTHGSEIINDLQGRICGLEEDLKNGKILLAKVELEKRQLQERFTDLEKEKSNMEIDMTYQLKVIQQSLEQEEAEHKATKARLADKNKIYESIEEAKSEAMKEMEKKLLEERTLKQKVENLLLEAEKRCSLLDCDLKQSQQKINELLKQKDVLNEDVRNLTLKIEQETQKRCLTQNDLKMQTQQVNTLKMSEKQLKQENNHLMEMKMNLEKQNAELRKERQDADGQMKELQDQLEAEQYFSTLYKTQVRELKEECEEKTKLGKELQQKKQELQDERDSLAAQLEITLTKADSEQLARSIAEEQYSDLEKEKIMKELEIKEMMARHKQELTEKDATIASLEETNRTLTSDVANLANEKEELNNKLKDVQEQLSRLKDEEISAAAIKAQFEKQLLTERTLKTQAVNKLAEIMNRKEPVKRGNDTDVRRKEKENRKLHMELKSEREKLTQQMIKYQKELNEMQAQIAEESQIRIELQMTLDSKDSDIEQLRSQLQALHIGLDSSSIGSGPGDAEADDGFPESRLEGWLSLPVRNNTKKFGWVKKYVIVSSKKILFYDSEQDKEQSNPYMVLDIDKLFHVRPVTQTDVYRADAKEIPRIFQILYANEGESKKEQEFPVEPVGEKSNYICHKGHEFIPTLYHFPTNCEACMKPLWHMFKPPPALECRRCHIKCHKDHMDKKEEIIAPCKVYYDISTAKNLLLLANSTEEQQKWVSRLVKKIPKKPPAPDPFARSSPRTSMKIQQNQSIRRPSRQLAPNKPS

Row | Compound | IC50
1 | O=C1OC(C(O)(c2ccccc2)C(F)(F)F)CN1c1ccc(-c2n[nH]c(=O)c3ccccc23)cc1 (stereo not drawn) [Example 22, 4-{4-[2-oxo-5-(2,2,2-trifluoro-1-hydroxy-1-phenylethyl)-1,3-oxazolidin-3-yl]phenyl}-1,2-dihydrophthalazin-1-one] | 500 to 2000 nM
2 | O=C1C(c2ccc(-c3n[nH]c(=O)c4ccccc34)cc2)CCN1c1ccccc1 (stereo not drawn) [Example 9, 4-[4-(2-oxo-1-phenylpyrrolidin-3-yl)phenyl]-1,2-dihydrophthalazin-1-one] | 100 to 500 nM
3 | O=c1[nH]nc(-c2ccc(-n3ncn(Cc4cccc(F)c4)c3=O)cc2)c2ccccc12 [Example 53, 4-(4-{4-[(3-fluorophenyl)methyl]-5-oxo-4,5-dihydro-1H-1,2,4-triazol-1-yl}phenyl)-1,2-dihydrophthalazin-1-one] | 100 to 500 nM
4 | CC(c1ccccc1)n1cnn(-c2ccc(-c3n[nH]c(=O)c4ccccc34)cc2)c1=O (stereo not drawn) [Example 54, 4-{4-[5-oxo-4-(1-phenylethyl)-4,5-dihydro-1H-1,2,4-triazol-1-yl]phenyl}-1,2-dihydrophthalazin-1-one] | 500 to 2000 nM
5 | N#Cc1cnc(NC2CCN(c3ccc(-c4n[nH]c(=O)c5ccccc45)cc3)C2=O)s1 (stereo not drawn) [Example 59, 2-({2-oxo-1-[4-(4-oxo-3,4-dihydrophthalazin-1-yl)phenyl]pyrrolidin-3-yl}amino)-1,3-thiazole-5-carbonitrile] | 100 to 500 nM
6 | O=C1OCC(c2ccccc2)N1c1ccc(-c2n[nH]c(=O)c3ccccc23)cc1 (stereo not drawn) [Example 14, 4-[4-(2-oxo-4-phenyl-1,3-oxazolidin-3-yl)phenyl]-1,2-dihydrophthalazin-1-one] | 100 to 500 nM
7 | O=C1C(c2ccc(-c3n[nH]c(=O)c4ccccc34)cc2)CCN1Cc1ccccc1 (stereo not drawn) [Example 8, 4-[4-(1-benzyl-2-oxopyrrolidin-3-yl)phenyl]-1,2-dihydrophthalazin-1-one] | 500 to 2000 nM
8 | O=c1n(Cc2ccccc2)cnn1-c1ccc(-c2n[nH]c(=O)n3cccc23)cc1 [Example 47, 4-benzyl-1-(4-{4-oxo-3H,4H-pyrrolo[1,2-d][1,2,4]triazin-1-yl}phenyl)-4,5-dihydro-1H-1,2,4-triazol-5-one] | 500 to 2000 nM
9 | COc1cccc(OC2CCN(c3ccc(-c4n[nH]c(=O)c5ccccc45)cc3)C2=O)c1 (stereo not drawn) [Example 86, 4-{4-[3-(3-methoxyphenoxy)-2-oxopyrrolidin-1-yl]phenyl}-1,2-dihydrophthalazin-1-one] | 10 to 100 nM
10 | O=C1OC(c2ccccc2)CN1c1ccc(-c2n[nH]c(=O)c3ccccc23)cc1 (stereo not drawn) [Example 15, 4-[4-(2-oxo-5-phenyl-1,3-oxazolidin-3-yl)phenyl]-1,2-dihydrophthalazin-1-one] | 10 to 100 nM
11 | O=C1C(N2CCOCC2)CCN1c1ccc(-c2n[nH]c(=O)c3ccccc23)cc1 (stereo not drawn) [Example 24, 4-{4-[3-(morpholin-4-yl)-2-oxopyrrolidin-1-yl]phenyl}-1,2-dihydrophthalazin-1-one] | 500 to 2000 nM
12 | Cc1nc2ccc(NC3CCN(c4ccc(-c5n[nH]c(=O)c6ccccc56)cc4)C3=O)cc2s1 (single isomer, unassigned) [Example 81, 4-(4-{3-[(2-methyl-1,3-benzothiazol-6-yl)amino]-2-oxopyrrolidin-1-yl}phenyl)-1,2-dihydrophthalazin-1-one] | 10 to 100 nM
13 | CC(C)(C)OC(=O)NCC1CN(c2ccc(-c3n[nH]c(=O)c4ccccc34)cc2)C(=O)O1 (stereo not drawn) [Example 16, tert-butyl N-({2-oxo-3-[4-(4-oxo-3,4-dihydrophthalazin-1-yl)phenyl]-1,3-oxazolidin-5-yl}methyl)carbamate] | 500 to 2000 nM
14 | COc1cc(NC2CCN(c3ccc(-c4n[nH]c(=O)c5ccccc45)cc3)C2=O)ccc1F (stereo not drawn) [Example 42, 4-(4-{3-[(4-fluoro-3-methoxyphenyl)amino]-2-oxopyrrolidin-1-yl}phenyl)-1,2-dihydrophthalazin-1-one] | 10 to 100 nM
15 | O=C1C(Nc2ccc3c(c2)OCCCO3)CCN1c1ccc(-c2n[nH]c(=O)c3ccccc23)cc1 (single isomer, unassigned) [Example 77, 4-(4-{3-[(3,4-dihydro-2H-1,5-benzodioxepin-7-yl)amino]-2-oxopyrrolidin-1-yl}phenyl)-1,2-dihydrophthalazin-1-one] | 10 to 100 nM
16 | C[C@@H]1OC(=O)N(c2ccc(-c3n[nH]c(=O)c4ccccc34)cc2)[C@@H]1c1ccccc1 [Example 23, 4-{4-[(4R,5S)-5-methyl-2-oxo-4-phenyl-1,3-oxazolidin-3-yl]phenyl}-1,2-dihydrophthalazin-1-one] | 500 to 2000 nM
17 | O=C1C(NCCc2ccccc2)CCN1c1ccc(-c2n[nH]c(=O)c3ccccc23)cc1 (stereo not drawn) [Example 45, 4-(4-{2-oxo-3-[(2-phenylethyl)amino]pyrrolidin-1-yl}phenyl)-1,2-dihydrophthalazin-1-one] | 500 to 2000 nM
18 | O=C1OC(Cc2ccccc2)CN1c1ccc(-c2n[nH]c(=O)c3ccccc23)cc1 (stereo not drawn) [Example 13, 4-[4-(5-benzyl-2-oxo-1,3-oxazolidin-3-yl)phenyl]-1,2-dihydrophthalazin-1-one] | 10 to 100 nM
19 | COc1cccc(Cn2cnn(-c3ccc(-c4n[nH]c(=O)c5ccccc45)cc3)c2=O)c1 [Example 46, 4-(4-{4-[(3-methoxyphenyl)methyl]-5-oxo-4,5-dihydro-1H-1,2,4-triazol-1-yl}phenyl)-1,2-dihydrophthalazin-1-one] | 100 to 500 nM
20 | O=C1N(c2ccc(-c3n[nH]c(=O)c4ccccc34)cc2)CCN1c1ccccn1 [Example 12, 4-{4-[2-oxo-3-(pyridin-2-yl)imidazolidin-1-yl]phenyl}-1,2-dihydrophthalazin-1-one] | 10 to 100 nM
21 | O=C1N(c2ccc(-c3n[nH]c(=O)c4ccccc34)cc2)CCN1c1cccnc1 [Example 11, 4-{4-[2-oxo-3-(pyridin-3-yl)imidazolidin-1-yl]phenyl}-1,2-dihydrophthalazin-1-one] | 10 to 100 nM

Next, values leading:

Row | IC50 | Compound
22 | 10 to 100 nM | O=C1N(Cc2ccccc2)CCN1c1ccc(-c2n[nH]c(=O)c3ccccc23)cc1 [Example 10, 4-[4-(3-benzyl-2-oxoimidazolidin-1-yl)phenyl]-1,2-dihydrophthalazin-1-one]
23 | < 10 nM | O=C1C(Nc2cccc(OC(F)F)c2)CCN1c1ccc(-c2n[nH]c(=O)c3ccccc23)cc1 (racemic) [Example 30, 4-[4-(3-{[3-(difluoromethoxy)phenyl]amino}-2-oxopyrrolidin-1-yl)phenyl]-1,2-dihydrophthalazin-1-one]
24 | < 10 nM | O=C1COc2cc(NC3CCN(c4ccc(-c5n[nH]c(=O)c6ccccc56)cc4)C3=O)ccc2N1 (racemic) [Example 62, 7-({2-oxo-1-[4-(4-oxo-3,4-dihydrophthalazin-1-yl)phenyl]pyrrolidin-3-yl}amino)-3,4-dihydro-2H-1,4-benzoxazin-3-one]
25 | 10 to 100 nM | O=C1C(Nc2cccc(OC(F)F)c2)CCN1c1ccc(-c2n[nH]c(=O)c3ccccc23)cc1 (single isomer, unassigned) [Example 55, 4-[4-(3-{[3-(difluoromethoxy)phenyl]amino}-2-oxopyrrolidin-1-yl)phenyl]-1,2-dihydrophthalazin-1-one]
26 | < 10 nM | O=C1C(Oc2cccc(OC(F)(F)F)c2)CCN1c1ccc(-c2n[nH]c(=O)c3ccccc23)cc1 (racemic) [Example 73, 4-(4-{2-oxo-3-[3-(trifluoromethoxy)phenoxy]pyrrolidin-1-yl}phenyl)-1,2-dihydrophthalazin-1-one]
27 | 10 to 100 nM | CCOc1cccc(NC2CCN(c3ccc(-c4n[nH]c(=O)c5ccccc45)cc3)C2=O)c1 (stereo not drawn) [Example 43, 4-(4-{3-[(3-ethoxyphenyl)amino]-2-oxopyrrolidin-1-yl}phenyl)-1,2-dihydrophthalazin-1-one]
28 | 10 to 100 nM | COc1ccc(F)c(NC2CCN(c3ccc(-c4n[nH]c(=O)c5ccccc45)cc3)C2=O)c1 (stereo not drawn) [Example 37, 4-(4-{3-[(2-fluoro-5-methoxyphenyl)amino]-2-oxopyrrolidin-1-yl}phenyl)-1,2-dihydrophthalazin-1-one]
29 | 10 to 100 nM | Cc1[nH]nc(C2CC2)c1NC1CCN(c2ccc(-c3n[nH]c(=O)c4ccccc34)cc2)C1=O (stereo not drawn) [Example 36, 4-(4-{3-[(3-cyclopropyl-5-methyl-1H-pyrazol-4-yl)amino]-2-oxopyrrolidin-1-yl}phenyl)-1,2-dihydrophthalazin-1-one]
30 | < 10 nM | O=C1C(Nc2cccc(OC(F)F)c2)CCN1c1ccc(-c2c[nH]c(=O)c3ccccc23)cc1 (single isomer, unassigned) [Example 79, 4-[4-(3-{[3-(difluoromethoxy)phenyl]amino}-2-oxopyrrolidin-1-yl)phenyl]-1,2-dihydroisoquinolin-1-one]
31 | < 10 nM | Cc1nc2ccc(NC3CCN(c4ccc(-c5n[nH]c(=O)c6ccccc56)cc4)C3=O)cc2s1 (racemic) [Example 66, 4-(4-{3-[(2-methyl-1,3-benzothiazol-6-yl)amino]-2-oxopyrrolidin-1-yl}phenyl)-1,2-dihydrophthalazin-1-one]
32 | < 10 nM | O=C1C(Nc2cccc(OC(F)F)c2)CCN1c1ccc(-c2n[nH]c(=O)c3ccccc23)cc1 (single isomer, unassigned) [Example 56, 4-[4-(3-{[3-(difluoromethoxy)phenyl]amino}-2-oxopyrrolidin-1-yl)phenyl]-1,2-dihydrophthalazin-1-one]
33 | < 10 nM | O=C1C(Oc2cccc(OC(F)(F)F)c2)CCN1c1ccc(-c2n[nH]c(=O)c3ccccc23)cc1 (single isomer, unassigned) [Example 84, 4-(4-{2-oxo-3-[3-(trifluoromethoxy)phenoxy]pyrrolidin-1-yl}phenyl)-1,2-dihydrophthalazin-1-one]
